From US20240016875A1, “SHAN-ZHA FOR THE TREATMENT OF DEPRESSION AND ANXIETY DISORDERS” (THE OPEN UNIVERSITY, priority 2020, published 2024) come the findings set out here.

Molecules are shown by their SMILES. “Also recorded” adds a separate entry of the source.

Holding throughout (type): in vivo
For data set [1], the system named is stressed mice. The data set is described as follows: Elevated plus maze (EPM), UCMS-stressed mice, Examples 1-3. The settings on record: UCMS-stressed male ICR mice; herbs and NHT 30 mg/kg, escitalopram 15 mg/kg i.p., 3 weeks; vs vehicle.
Method: ICR outbred 28-30 days old male mice (Envigo, Israel) were maintained in the vivarium of the Open University lab in Hadassah Ein Karem medical cement, Jerusalem. Mice were group housed (5 mice per cage) and each cage contained mice from all treatment groups. Mice were given ad libitum access to food and water except during stressor application (with the exclusion of the light/dark cycle reversal). Mice kept on a reversed 12 h light/dark cycle (lights on 7:00 pm-7:00 am) while experimental procedures were performed during the dark phase under red light. All experiments were approved by the Open University of Israel committee for animal care and use. Methods were carried out in accordance with the NIH guidelines.
The EPM task was performed as previously described [6]. Shortly, each mouse was placed in the center of the maze and video recorded for 5 min. Anxiety-like behavior was expressed as the time the mouse spent in the open, unprotected arms of the maze. […]
The subject of data set [2] is BDNF. Briefly: BDNF ELISA of hippocampus and PFC, stressed mice. To be noted: UCMS-stressed mice; herbs and NHT 30 mg/kg, escitalopram 15 mg/kg i.p., 3 weeks; vs vehicle. Background: In an ELISA, binding on a coated surface is turned into a signal by an enzyme label.
Method: Mice were decapitated, and their brains were placed on ice. Serial sections (1 mm wide) were cut onto slides, and tissue punches of the hippocampus and PFC (1.7 mm diameter) were taken. Tissue punches were homogenized in cold extraction buffer (Tris-buffered saline, pH 8.0, with 1% NP-40, 10% glycerol, 5 mM sodium metavanadate, 10 mM PMSF, 100 μg/ml aprotinin and 10 μg/ml leupeptin). Homogenates were acidified with 0.1 M HCl (pH 3.0), incubated at room temperature (22-24° C.) for 15 min, and neutralized (pH 7.6) with 0.1 M NaOH. Homogenates were then microfuged at 7000×g for 10 min. BDNF levels were quantified using sandwich ELISA (R&D systems, Minneapolis, MN, USA) according to the manufacturer's instructions.
Data set [3] concerns stressed mice. The data set is described as follows: Evaluation of sexual function (number of mounts), stressed mice. To be noted: UCMS-stressed male mice, 30 min with female in estrus, Shan-zha and NHT 30 mg/kg, escitalopram 15 mg/kg i.p., 3 weeks, vs vehicle. How it is done: Crataegus pinnatifida, Triticum aestivum, Lilium brownii and Fructus zizyphi jujuba were purchased as freeze-dried granules (KPC Products, Inc., Irvine, CA, USA). Each herb was dissolved in saline with 1% dimethylsulfoxide (DMSO) to a final concentration of 0.47 mg/ml and injected i.p. individually (30 mg/kg) or with the other components to form the formula (NHT, 30 mg/kg). […] Vehicle treatment included i.p. injection of saline with 1% DMSO. All treatments were carried out for 3 weeks. Each male mouse was placed with a female mouse in estrus in the male's home cage during the dark phase under red dim light for 30 min. Number of mounts were coded by an observer blind to the treatment.

For data set [4], the system named is stressed mice. Briefly: EPM, UCMS-stressed mice, Example 7. How it is done:
Animals. ICR outbred mice (Envigo RMS (Harlen), Israel) are kept in the vivarium of the Open University lab in Hadassah medical center, Jerusalem. Mice are kept on a reversed 12 h light/dark cycle and given ad libitum access to food and water. All experiments are performed during the dark phase under red light (7:00-19:00). All experiments have been approved by the committee for animal care and use according to the NIH guidelines. Drugs. Drugs are dissolved in saline and 1% DMSO to the desired concentration and administered i.p. Herbal mixture and Shan-zha (30 mg/kg) will be prepared by dissolving each component (KPC Products, Inc., CA, USA) to a final concentration of 0.47 mg/ml. […] Unpredictable chronic mild stress (UCMS). Mice are exposed to UCMS for 4 weeks at the age of 4 weeks as previously described. Elevated plus maze (EPM). This task is based on the natural tendency of mice to avoid open and elevated places. EPM are performed as previously described. Anxiety-like behavior are expressed as the time the animal spent in the open, unprotected arms of the maze.

For data set [5], the system named is stressed mice. Briefly: Open Field Test (OFT), UCMS-stressed mice, Example 7. The settings on record: 30 mg/kg (escitalopram 15 mg/kg) i.p., 3 weeks, vs vehicle. Here is the method: Animals. ICR outbred mice (Envigo RMS (Harlen), Israel) are kept in the vivarium of the Open University lab in Hadassah medical center, Jerusalem. Mice are kept on a reversed 12 h light/dark cycle and given ad libitum access to food and water. All experiments are performed during the dark phase under red light (7:00-19:00). All experiments have been approved by the committee for animal care and use according to the NIH guidelines. Drugs. Drugs are dissolved in saline and 1% DMSO to the desired concentration and administered i.p. Herbal mixture and Shan-zha (30 mg/kg) will be prepared by dissolving each component (KPC Products, Inc., CA, USA) to a final concentration of 0.47 mg/ml. […] Unpredictable chronic mild stress (UCMS). Mice are exposed to UCMS for 4 weeks at the age of 4 weeks as previously described. Open Field Test (OFT). This test reflects the conflict between the innate fear that mice have of the central area of the field versus their desire to explore new environments. When anxious, the natural tendency of mice is to prefer staying close to the walls. […] Anxiety-like behavior is expressed as the time the animal spent in the center area of the field (Walsh, R. N. and R. A. Cummins, Psychol Bull, 1976. 83(3): p. 482-504). Locomotor activity are expressed as the percentage of time that the mouse moved in the arena in a velocity above 0.1 pixel/sec.

On to `CN(C)CCC[C@@]1(c2ccc(F)cc2)OCc2cc(C#N)ccc21` [escitalopram], for which, in data set [1], the “time spent in the open arms of the EPM (anxiety-like behavior)” value is listed as “spent more time in the open arms of the maze in comparison with vehicle-treated mice; also recorded: reduced anxiety-like behavior in the EPM compared to vehicle”. For the same molecule, in data set [2], the “BDNF levels in the PFC” value is “elevations in BDNF levels in the PFC compared to vehicle-treated mice; also recorded: elevated BDNF levels in the PFC compared to vehicle” and the “hippocampal BDNF levels” value is listed as “elevations in hippocampal BDNF levels compared to vehicle-treated mice; also recorded: elevated hippocampal BDNF levels compared to vehicle”. The “sexual function (number of mounts)” value in data set [3] was “significantly reduced sexual function compared to vehicle”. Also, the “sexual function (number of mounts)” value in data set [3] (listed as Escitalopram) is “lower number of mounts in comparison with vehicle-treated mice”. Further, in data set [4] (stressed mice, 30 mg/kg (escitalopram 15 mg/kg) i.p., 3 weeks, vs vehicle), the “anxiety-like behavior in the EPM” value is “exhibited reduced anxiety-like behavior in the EPM compared to vehicle-treated stressed mice”. In addition, the “time (seconds) spent in open arms in the EPM, FIG. 22 experiment” value in data set [4] (vs saline, fractions SZ 50% and SZ 20% at 3 mg, listed as Escitalopram) was “Mice treated with saline spent significantly less time in open arms in comparison to other treatment groups”. The “anxiety-like behavior in the OFT” value in data set [5] is on record as “exhibited reduced anxiety-like behavior in the OFT compared to vehicle-treated stressed mice”.
